Activity calls are given as the source filed them. The rule behind the calls is not given here.
Legend:
[1] = test system: A2780; experiment: Cytotoxicity against human A2780 cells assessed as intracellular ATP level after 72 hrs by luminometry; format: functional, cell-based; conditions: A2780, 72 h, read-out: IC50
[2] = test system: MCF7; experiment: Cytotoxicity against human MCF7 cells assessed as intracellular ATP level after 72 hrs by luminometry; format: functional, cell-based; conditions: MCF7, 72 h
[3] = test system: A2780; experiment: Cytotoxicity against human A2780 cells assessed as intracellular ATP level at 10 uM after 72 hrs by luminometry; format: functional, cell-based
[4] = test system: MCF7; experiment: Cytotoxicity against human MCF7 cells assessed as intracellular ATP level at 10 uM after 72 hrs by luminometry; format: functional, cell-based
[5] = target: T1, Broad substrate specificity ATP-binding cassette transporter ABCG2 (Homo sapiens, UniProt Q9UNQ0); experiment: Inhibition of BCRP expressed in MDCK cells using Hoechst 33342 staining; format: cell-based
T1 sequence (Q9UNQ0 whole entry): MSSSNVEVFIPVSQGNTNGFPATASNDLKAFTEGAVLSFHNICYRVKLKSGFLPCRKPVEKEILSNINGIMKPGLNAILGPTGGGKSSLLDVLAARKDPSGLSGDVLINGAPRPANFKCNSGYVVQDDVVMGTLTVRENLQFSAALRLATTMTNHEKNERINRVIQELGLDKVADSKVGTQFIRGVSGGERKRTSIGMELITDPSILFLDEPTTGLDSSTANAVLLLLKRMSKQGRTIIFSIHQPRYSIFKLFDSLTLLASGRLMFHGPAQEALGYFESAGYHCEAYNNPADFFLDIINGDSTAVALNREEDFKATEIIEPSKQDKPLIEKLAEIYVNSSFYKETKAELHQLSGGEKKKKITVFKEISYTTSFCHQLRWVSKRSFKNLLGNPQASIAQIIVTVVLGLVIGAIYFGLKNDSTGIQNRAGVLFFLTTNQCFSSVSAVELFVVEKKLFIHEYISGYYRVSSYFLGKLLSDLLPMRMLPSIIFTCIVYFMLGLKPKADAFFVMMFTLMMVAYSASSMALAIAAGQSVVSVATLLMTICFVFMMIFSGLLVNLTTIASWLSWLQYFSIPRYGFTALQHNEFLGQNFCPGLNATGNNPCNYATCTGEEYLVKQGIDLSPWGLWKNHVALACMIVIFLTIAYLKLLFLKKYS

[6] = target: T1, Broad substrate specificity ATP-binding cassette transporter ABCG2; experiment: Inhibition of BCRP expressed in MCF-7 MX cells using Hoechst 33342 staining; format: cell-based, MCF7
[7] = test system: A2780 ADR; experiment: Inhibition of P-gp expressed in A2780adr cells at 10 uM by calcein AM accumulation assay relative to verapamil; format: cell-based
[8] = Inhibition of P-gp expressed in A2780adr cells by calcein AM accumulation assay; format: cell-based; conditions: A2780 ADR
[9] = target: ATP-dependent translocase ABCB1 (Homo sapiens, UniProt P08183); experiment: Inhibition of MDR1 expressed in MDCK cells using rhodamine 123 staining by flow cytometry; format: cell-based
Chain of ATP-dependent translocase ABCB1 (P08183 whole entry): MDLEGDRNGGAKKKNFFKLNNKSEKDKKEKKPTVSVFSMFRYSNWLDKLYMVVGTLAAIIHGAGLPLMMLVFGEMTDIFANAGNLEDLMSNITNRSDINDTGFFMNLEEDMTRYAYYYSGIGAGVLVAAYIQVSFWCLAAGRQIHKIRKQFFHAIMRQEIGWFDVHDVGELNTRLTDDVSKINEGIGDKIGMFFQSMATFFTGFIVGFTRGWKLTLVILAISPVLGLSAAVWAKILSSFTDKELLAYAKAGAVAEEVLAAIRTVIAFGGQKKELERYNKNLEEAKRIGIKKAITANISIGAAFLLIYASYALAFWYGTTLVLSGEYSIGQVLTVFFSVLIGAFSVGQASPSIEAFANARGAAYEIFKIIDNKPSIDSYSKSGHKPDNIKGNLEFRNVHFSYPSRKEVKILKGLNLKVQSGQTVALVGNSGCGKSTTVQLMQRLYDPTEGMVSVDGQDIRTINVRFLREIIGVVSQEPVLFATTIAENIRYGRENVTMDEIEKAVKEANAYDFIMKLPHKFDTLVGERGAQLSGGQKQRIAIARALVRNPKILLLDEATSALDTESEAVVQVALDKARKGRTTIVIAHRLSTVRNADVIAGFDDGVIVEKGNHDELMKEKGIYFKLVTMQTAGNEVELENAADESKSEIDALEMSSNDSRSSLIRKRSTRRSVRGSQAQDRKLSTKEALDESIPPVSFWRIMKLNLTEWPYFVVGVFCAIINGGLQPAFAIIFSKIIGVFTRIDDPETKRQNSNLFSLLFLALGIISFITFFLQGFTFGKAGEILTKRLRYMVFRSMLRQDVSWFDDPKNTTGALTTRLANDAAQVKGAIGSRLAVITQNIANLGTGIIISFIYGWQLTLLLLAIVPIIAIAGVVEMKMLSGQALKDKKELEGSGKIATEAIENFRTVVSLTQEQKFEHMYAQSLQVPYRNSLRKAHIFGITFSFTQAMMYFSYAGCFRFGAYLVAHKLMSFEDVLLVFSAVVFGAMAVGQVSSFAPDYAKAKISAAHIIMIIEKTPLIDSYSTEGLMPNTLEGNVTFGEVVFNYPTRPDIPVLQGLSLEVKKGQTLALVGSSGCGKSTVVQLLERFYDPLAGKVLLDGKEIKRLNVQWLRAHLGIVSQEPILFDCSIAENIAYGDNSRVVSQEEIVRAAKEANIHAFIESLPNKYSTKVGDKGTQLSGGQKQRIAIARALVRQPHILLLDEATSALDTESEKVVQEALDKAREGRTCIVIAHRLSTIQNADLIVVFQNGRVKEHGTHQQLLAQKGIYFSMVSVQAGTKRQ

SMILES | IC50 [1] [µM] | IC50 [2] [µM] | Activity [3] | Activity [4] | IC50 ([5]; read-out: IC50) [µM] | IC50 ([6]; read-out: IC50) [µM] | inhibition [7] | IC50 ([5]; mdck) | IC50 ([6]; mcf7) | IC50 [8] [µM] | IC50 [9] [µM]
COc1cccc2c1C(=O)c1c(O)c3c(c(O)c1C2=O)C[C@@](O)(C(=O)CO)C[C@@H]3O[C@H]1C[C@H](N)[C@H](O)[C@H](C)O1 [DOXORUBICIN] | 0.044 | 0.1 |  |  |  |  |  |  |  |  | 
O=c1cc(-c2ccccc2)oc2ccccc12 [FLAVONE] |  |  | inactive | inactive | 17 | 26 | inactive |  |  |  | 
O=c1c(-c2ccc(O)cc2)coc2cc(O)cc(O)c12 [GENISTEIN] |  |  | inactive | inactive | 6.9 | 8.8 | inactive |  |  |  | 
O=c1c(O[C@@H]2O[C@H](CO)[C@H](O)[C@H](O)[C@H]2O)c(-c2ccc(O)c(O)c2)oc2cc(O)cc(O)c12 [HYPEROSIDE] |  |  | inactive | inactive |  |  | inactive | Not Active | Not Active |  | 
O=c1c(O)c(-c2ccc(O)cc2)oc2cc(O)cc(O)c12 [KAEMPFEROL] |  |  | inactive | inactive | 4.7 | 6.2 | inactive |  |  |  | 
O=c1c(O)c(-c2ccc(O)cc2O)oc2cc(O)cc(O)c12 [MORIN] |  |  | inactive | inactive | 21 | 49 | inactive |  |  |  | 
COC1=C(OC)[C@]2(OC)c3c(OC)c(OC)c4c(c3O[C@@]23O[C@@H](c2ccccc2)CC=C3C1=O)[C@@H](O)C[C@H](c1ccccc1)O4 [NEOCALYCOPTERON] | 2.4 | 2.4 | Active | Active | 11 | 15 | inactive |  |  | 12 | 8
COc1ccc(-c2cc(=O)c3c(OC)c(OC)c(OC)c(OC)c3o2)cc1OC [NOBILETIN] |  |  | inactive | inactive | 4.9 | 4.4 | inactive |  |  |  | 
COc1cc2oc(-c3ccc(O)cc3)c(OC)c(=O)c2c(O)c1OC [PENDULETIN] |  |  | inactive | inactive | 1.2 | 2 | inactive |  |  | 15 | 14
COc1cc(O)c2c(c1)O[C@H](c1ccccc1)CC2=O [PINOSTROBIN] |  |  | inactive | inactive | 8.9 | 31 | inactive |  |  |  | 
O=c1c(O)c(-c2ccc(O)c(O)c2)oc2cc(O)cc(O)c12 [QUERCETIN] |  |  | inactive | inactive | 6.9 | 7.6 | inactive |  |  |  | 
COc1ccc(-c2cc(=O)c3c(OC)c(OC)c(OC)cc3o2)cc1OC [SINENSETIN] |  |  | inactive | inactive | 9 | 8.3 | inactive |  |  | 34 | 29
Cc1c(O)cc2c(c1O)C(=O)CC(c1ccccc1)O2 (centres undefined) [STROBOPININ] |  |  | inactive | inactive | 11 | 26 | inactive |  |  |  | 
COc1cc2oc(-c3ccccc3)cc(=O)c2c(OC)c1C [Strobochrysin-dimethylether] |  |  | inactive | inactive | 5.9 | 8 | inactive |  |  | 8.9 | 19
COc1ccc(-c2cc(=O)c3c(OC)c(OC)c(OC)c(OC)c3o2)cc1 [TANGERETIN] |  |  | inactive | inactive | 19 | 17 | inactive |  |  | 19 | 39
C[C@@H]1O[C@@H](Oc2ccc(-c3cc(=O)c4c(O)cc(O)c([C@@H]5O[C@H](CO)[C@@H](O)[C@H](O)[C@H]5O)c4o3)cc2)[C@H](O)[C@H](O)[C@H]1O [VITEXIN-4'-RHAMNOSIDE] |  |  | inactive | inactive |  |  | inactive | Not Active | Not Active |  | 

Source: ChEMBL document CHEMBL1681785, “Structure-activity relationships of flavonoids as inhibitors of breast cancer resistance protein (BCRP)” (Bioorg Med Chem, 2011)
